Assay results reported in patent US8088936B2, “Leukotriene B4 inhibitors” (Hoffman-La Roche Inc., priority 2009, dated 2012).

Test system: Human leukemia HL-60 cells endogenously expressing BLT1 and BLT2 receptors
Test: Ca2+ flux assay for LTB4 antagonist assay (HL-60 FLIPR)
Type: cell-based
Conditions: retinoic acid induced HL-60 cells, inhibition of LTB4-induced Ca2+ flux, 30 min preincubation; read-out: LTB4 antagonism (HL-60 FLIPR)
Experimental: Assay of Compounds for Inhibition of LTB4 Activity
Ca^2+Flux Assay for LTB4 Antagonist Assay
Human leukemia HL-60 cells endogenously expressing BLT1 and BLT2 receptors were cultured in RPMI-1640 medium supplemented with 20% fetal bovine serum, 2 mM glutamine, 100 U/ml penicillin and 100 ug/ml streptomycin.
Seventy two hours prior to experiment cells are counted using ViaCount reagent, centrifuged and resuspended at 2.0×10^5 cells/ml density with the complete growth media containing 1 μM Retinoic Acid (Sigma).
On a day of the experiment loading buffer (Calcium-3 Assay Kit, Molecular Devices) was prepared by dissolving the contents of one vial (Express Kit) into 500 ml Hank's Balanced Salt Solution containing 20 mM HEPES and 5 mM probenecid. Equal volume of the loading buffer was mixed with the replacement buffer (Hank's Balanced Salt Solution containing 20 mM HEPES, 0.05% BSA and 5 mM probenecid). Retinoic Acid induced HL-60 cells were counted using ViaCount reagent, centrifuged and resuspended at 2.0×10^6 cells/ml density with the loading buffer/replacement buffer, dispensed into 384 well black/clear microplates (Falcon) (25 μl/well) and placed in a 37° C./5% CO2 incubator for 1 hour.
During the incubation, test compounds were prepared at 6× the desired concentration in HBSS/20 mM HEPES/0.05% BSA as well as LTB4 (Biomol) was prepared at 2.2× concentration in HBSS/20 mM HEPES/0.5% BSA buffer.
After the incubation, both the cell and compound plates were brought to the FLIPR and 5 μl of the diluted compounds were transferred to the cell plates by the FLIPR. Plates were then incubated for 30 min at room temperature. After the ½ hour incubation, plates were returned to the FLIPR and 25 μl of 2.2×LTB4 was added to the cell plates. During the assay, fluorescence readings were taken simultaneously from all 384 wells of the cell plate every 1.5 seconds. Five readings were taken to establish a stable baseline, then 25 μl (LTB4) of sample was rapidly and simultaneously added to each well of the cell plate. The fluorescence was continuously monitored before, during and after sample addition for a total elapsed time of 100 seconds. Responses (increase in peak fluorescence) in each well following agonist addition was determined. The initial fluorescence reading from each well, prior to ligand stimulation, was used a zero baseline value for the data from that well. The responses are expressed as % inhibition of the neutral control (neural control: wells that received buffer plus DMSO but no test compound).

Row | Compound | IC50 [nM]
1 | CN(C)Cc1cc(OCCCCCCc2cccc(OCCCC(=O)O)c2CCC(=O)O)cc(-c2ccc(F)cc2)c1 [Example 33, 4-{2-(2-Carboxy-ethyl)-3-[6-(5-dimethylaminomethyl-4′-fluoro-biphenyl-3-yloxy)-hexyl]-phenoxy}-butyric acid] | 0.11
2 | COCc1cc(OCCCCCCc2cccc(OCCCC(=O)O)c2CCC(=O)O)cc(-c2cncnc2)c1 [Example 22, 4-[2-(2-Carboxy-ethyl)-3-[6-(3-methoxymethyl-5-pyrimidin-5-yl-phenoxy)-hexyl]-phenoxy]-butyric acid] | 339
3 | CN(C)Cc1cc(OCCCCCCc2cccc(OCCCC(=O)O)c2CCC(=O)O)cc(-c2ccc(Cl)cc2)c1 [Example 34, 4-{2-(2-Carboxy-ethyl)-3-[6-(4′-chloro-5-dimethylaminomethyl-biphenyl-3-yloxy)-hexyl]-phenoxy}-butyric acid] | 0.24
4 | COCc1cc(OCCCCCCc2cccc(OCCCC(=O)O)c2CCC(=O)O)cc(-c2cc(F)cc(F)c2)c1 [Example 16, 4-{2-(2-Carboxy-ethyl)-3-[6-(3′,5′-difluoro-5-methoxymethyl-biphenyl-3-yloxy)-hexyl]-phenoxy}-butyric acid] | 14.8
5 | O=C(O)CCCOc1cccc(CCCCCCOc2cc(OCC3CCCC3)cc(-c3ccsc3)c2)c1CCC(=O)O [Example 62, 4-[2-(2-Carboxy-ethyl)-3-[6-(3-cyclopentylmethoxy-5-thiophen-3-yl-phenoxy)-hexyl]-phenoxy]-butyric acid] | 7.98
6 | O=C(O)CCCOc1cccc(CCCCCCOc2cc(CO)cc(-c3ccc4c(c3)OCCO4)c2)c1CCC(=O)O [Example 6, 4-(2-(2-Carboxy-ethyl)-3-{6-[3-(2,3-dihydro-benzo[1,4]dioxin-6-yl)-5-hydroxymethylphenoxy]-hexyl}-phenoxy)-butyric acid] | 7.39
7 | CCOc1cc(OCCCCCCc2cccc(OCCCC(=O)O)c2CCC(=O)O)cc(-c2ccc3c(c2)OC(F)(F)O3)c1 [Example 57, 4-(2-(2-Carboxy-ethyl)-3-{6-[3-(2,2-difluoro-benzo[1,3]dioxol-5-yl)-5-ethoxy-phenoxy]-hexyl}-phenoxy)-butyric acid] | 1.2
8 | O=C(O)CCCOc1cccc(CCCCCCOc2cc(OCc3ccccc3)cc(-c3cccc(F)c3)c2)c1CCC(=O)O [Example 59, 4-[3-[6-(5-Benzyloxy-3′-fluoro-biphenyl-3-yloxy)-hexyl]-2-(2-carboxy-ethyl)-phenoxy]-butyric acid] | 132
9 | O=C(O)CCCOc1cccc(CCCCCCOc2cc(OCc3ccccc3)cc(-c3ccccc3)c2)c1CCC(=O)O [Example 58, 4-[3-[6-(5-Benzyloxy-biphenyl-3-yloxy)-hexyl]-2-(2-carboxy-ethyl)-phenoxy]-butyric acid] | 74.6
10 | CC(C)C(=O)c1cc(OCCCCCCc2cccc(OCCCC(=O)O)c2CCC(=O)O)cc(-c2ccc3c(c2)OCO3)c1 [Example 70, 4-[3-[6-(3-Benzo[1,3]dioxol-5-yl-5-isobutyryl-phenoxy)-hexyl]-2-(2-carboxy-ethyl)-phenoxy]-butyric acid] | 0.31
11 | O=C(O)CCCOc1cccc(CCCCCCOc2cc(OCc3ccccc3)cc(-c3ccc4c(c3)OCO4)c2)c1CCC(=O)O [Example 60, 4-[3-[6-(3-Benzo[1,3]dioxol-5-yl-5-benzyloxy-phenoxy)-hexyl]-2-(2-carboxy-ethyl)-phenoxy]-butyric acid] | 4.59
12 | O=C(O)CCCOc1cccc(CCCCCCOc2cc(CO)cc(-c3ccc(F)cc3)c2)c1CCC(=O)O [Example 4, 4-{2-(2-Carboxy-ethyl)-3-[6-(4′-fluoro-5-hydroxymethyl-biphenyl-3-yloxy)-hexyl]-phenoxy}-butyric acid] | 29.6
13 | COCc1cc(OCCCCCCc2cccc(OCCCC(=O)O)c2CCC(=O)O)cc(-c2cccc(F)c2)c1 [Example 14, 4-{2-(2-Carboxy-ethyl)-3-[6-(3′-fluoro-5-methoxymethyl-biphenyl-3-yloxy)-hexyl]-phenoxy}-butyric acid] | 1.47
14 | O=C(O)CCCOc1cccc(CCCCCCOc2cc(CO)cc(-c3ccsc3)c2)c1CCC(=O)O [Example 3, 4-{2-(2-Carboxy-ethyl)-3-[6-(3-hydroxymethyl-5-thiophen-3-yl-phenoxy)-hexyl]-phenoxy}-butyric acid] | 62.5
15 | CCOc1cc(OCCCCCCc2cccc(OCCCC(=O)O)c2CCC(=O)O)cc(-c2ccc3[nH]ccc3c2)c1 [Example 54, 4-[2-(2-Carboxy-ethyl)-3-{6-[3-ethoxy-5-(1H-indol-5-yl)-phenoxy]-hexyl}-phenoxy]-butyric acid] | 34.2
16 | COCc1cc(OCCCCCCc2cccc(OCCCC(=O)O)c2CCC(=O)O)cc(-c2ccccc2F)c1 [Example 15, 4-{2-(2-Carboxy-ethyl)-3-[6-(2′-fluoro-5-methoxymethyl-biphenyl-3-yloxy)-hexyl]-phenoxy}-butyric acid] | 5.98
17 | CCOc1cc(OCCCCCCc2cccc(OCCCC(=O)O)c2CCC(=O)O)cc(-c2ccccc2)c1 [Example 44, 4-[2-(2-Carboxy-ethyl)-3-[6-(5-ethoxy-biphenyl-3-yloxy)-hexyl]-phenoxy]-butyric acid] | 1.26
18 | O=C(O)CCCOc1cccc(CCCCCCOc2cc(CO)cc(-c3ccc(Cl)cc3)c2)c1CCC(=O)O [Example 5, 4-{2-(2-Carboxy-ethyl)-3-[6-(4′-chloro-5-hydroxymethyl-biphenyl-3-yloxy)-hexyl]-phenoxy}-butyric acid] | 43.1
19 | COCc1cc(OCCCCCCc2cccc(OCCCC(=O)O)c2CCC(=O)O)cc(-c2ccc3c(c2)OCCO3)c1 [Example 12, 4-(2-(2-Carboxy-ethyl)-3-{6-[3-(2,3-dihydro-benzo[1,4]dioxin-6-yl)-5-methoxymethyl-phenoxy]-hexyl}-phenoxy)-butyric acid] | 1.38
20 | CC(=O)c1cc(OCCCCCCc2cccc(OCCCC(=O)O)c2CCC(=O)O)cc(-c2cccc(F)c2)c1 [Example 67, 4-[3-[6-(5-Acetyl-3′-fluoro-biphenyl-3-yloxy)-hexyl]-2-(2-carboxy-ethyl)-phenoxy]-butyric acid] | 5.1
21 | CN(C)Cc1cc(OCCCCCCc2cccc(OCCCC(=O)O)c2CCC(=O)O)cc(-c2ccc(C(F)(F)F)cc2)c1 [Example 37, 4-{2-(2-Carboxy-ethyl)-3-[6-(5-dimethylaminomethyl-4′-trifluoromethyl-biphenyl-3-yloxy)-hexyl]phenoxy}-butyric acid] | 0.37
22 | CCOCc1cc(OCCCCCCc2cccc(OCCCC(=O)O)c2CCC(=O)O)cc(-c2ccc(F)cc2)c1 [Example 26, 4-{2-(2-Carboxy-ethyl)-3-[6-(5-ethoxymethyl-4′-fluoro-biphenyl-3-yloxy)-hexyl]-phenoxy}-butyric acid] | 11.9
23 | CCOc1cc(OCCCCCCc2cccc(OCCCC(=O)O)c2CCC(=O)O)cc(-c2ccc(S(C)(=O)=O)cc2)c1 [Example 51, 4-[2-(2-Carboxy-ethyl)-3-[6-(5-ethoxy-4′-methanesulfonyl-biphenyl-3-yloxy)-hexyl]-phenoxy]-butyric acid] | 2.1
24 | O=C(O)CCCOc1cccc(CCCCCCOc2cc(CO)cc(-c3ccccc3)c2)c1CCC(=O)O [Example 2, 4-{2-(2-Carboxy-ethyl)-3-[6-(5-hydroxymethyl-biphenyl-3-yloxy)-hexyl]-phenoxy}-butyric acid] | 24.7
25 | CN(C)Cc1cc(OCCCCCCc2cccc(OCCCC(=O)O)c2CCC(=O)O)cc(-c2ccc(S(C)(=O)=O)cc2)c1 [Example 38, 4-{2-(2-Carboxy-ethyl)-3-[6-(5-dimethylaminomethyl-4′-methanesulfonyl-biphenyl-3-yloxy)-hexyl]-phenoxy}-butyric acid] | 2.22
26 | O=C(O)CCCOc1cccc(CCCCCCOc2cc(OCC3CCCC3)cc(-c3cccc(F)c3)c2)c1CCC(=O)O [Example 63, 4-[2-(2-Carboxy-ethyl)-3-[6-(5-cyclopentylmethoxy-3′-fluoro-biphenyl-3-yloxy)-hexyl]-phenoxy]-butyric acid] | 32.5
27 | CCOc1cc(OCCCCCCc2cccc(OCCCC(=O)O)c2CCC(=O)O)cc(-c2cccc(F)c2)c1 [Example 47, 4-[2-(2-Carboxy-ethyl)-3-[6-(5-ethoxy-3′-fluoro-biphenyl-3-yloxy)-hexyl]-phenoxy]-butyric acid] | 2.32
28 | CCOCc1cc(OCCCCCCc2cccc(OCCCC(=O)O)c2CCC(=O)O)cc(-c2ccc(C(F)(F)F)cc2)c1 [Example 27, 4-{2-(2-Carboxy-ethyl)-3-[6-(5-ethoxymethyl-4′-trifluoromethyl-biphenyl-3-yloxy)-hexyl]-phenoxy}-butyric acid] | 6.24
